Assay results reported in the NIST ThermoML archive (doi:10.1016/j.jct.2012.01.013).

Experiment: xn = mol fraction of the nth substance listed
Conditions: 101 kPa, Liquid; for viscosity: Falling or rolling sphere viscometry; for mass density: Vibrating tube method

CC(=O)[O-].Cn1cc[nH+]c1 [1-methylimidazolium acetate] + CCCCO
Conditions | mass density, 293.15 K [kg/m3] | mass density, 298.15 K [kg/m3] | mass density, 303.15 K [kg/m3] | mass density, 308.15 K [kg/m3] | mass density, 313.15 K [kg/m3] | viscosity, 293.15 K [mPa·s] | viscosity, 298.15 K [mPa·s] | viscosity, 303.15 K [mPa·s] | viscosity, 308.15 K [mPa·s] | viscosity, 313.15 K [mPa·s]
x1 = 0.0506 | 828.66 | 824.7 | 820.7 | 816.68 | 812.62 | – | 2.579 | 2.208 | 1.956 | 1.741
x1 = 0.1008 | 847.12 | 843.04 | 838.93 | 834.78 | 830.61 | 2.905 | 2.607 | 2.251 | 1.997 | 1.781
x1 = 0.1979 | 880.83 | 876.62 | 872.36 | 868.1 | 863.78 | 3.194 | 2.829 | 2.462 | 2.182 | 1.944
x1 = 0.2995 | 913.82 | 909.53 | 905.18 | 900.8 | 896.49 | 3.551 | 3.124 | 2.731 | 2.419 | 2.15
x1 = 0.4002 | 943.73 | 939.37 | 934.99 | 930.59 | 926.17 | 3.934 | 3.431 | 3.011 | 2.661 | 2.367
x1 = 0.4999 | 970.97 | 966.57 | 962.15 | 957.72 | 953.27 | 4.413 | 3.813 | 3.334 | 2.922 | 2.606
x1 = 0.6505 | 1008.21 | 1003.78 | 999.34 | 994.88 | 990.41 | 5.321 | 4.556 | 3.936 | 3.447 | 3.056
x1 = 0.7977 | 1040.65 | 1036.22 | 1031.77 | 1027.33 | 1022.9 | 6.49 | 5.533 | 4.739 | 4.068 | 3.538
x1 = 0.9013 | 1061.34 | 1056.91 | 1052.46 | 1048.01 | 1043.57 | 7.367 | 6.225 | 5.314 | 4.553 | 3.944

CC(=O)[O-].Cn1cc[nH+]c1 [1-methylimidazolium acetate] + CCCO
Conditions | mass density, 293.15 K [kg/m3] | mass density, 298.15 K [kg/m3] | mass density, 303.15 K [kg/m3] | mass density, 308.15 K [kg/m3] | mass density, 313.15 K [kg/m3] | viscosity, 293.15 K [mPa·s] | viscosity, 298.15 K [mPa·s] | viscosity, 303.15 K [mPa·s] | viscosity, 308.15 K [mPa·s] | viscosity, 313.15 K [mPa·s]
x1 = 0.0504 | 827.73 | 823.56 | 819.35 | 815.11 | 810.83 | 2.22 | 1.974 | 1.753 | 1.566 | 1.402
x1 = 0.0999 | 850.08 | 845.8 | 841.47 | 837.11 | 832.72 | 2.359 | 2.088 | 1.855 | 1.656 | 1.485
x1 = 0.2005 | 891.09 | 886.69 | 882.25 | 877.78 | 873.27 | 2.757 | 2.429 | 2.152 | 1.918 | 1.718
x1 = 0.3005 | 926.35 | 921.89 | 917.41 | 912.89 | 908.35 | 3.202 | 2.795 | 2.481 | 2.206 | 1.973
x1 = 0.4013 | 957.27 | 952.8 | 948.29 | 943.76 | 939.2 | 3.698 | 3.231 | 2.851 | 2.517 | 2.25
x1 = 0.5014 | 984.26 | 979.77 | 975.25 | 970.72 | 966.17 | 4.234 | 3.682 | 3.228 | 2.852 | 2.536
x1 = 0.6501 | 1018.37 | 1013.89 | 1009.37 | 1004.85 | 1000.32 | 5.113 | 4.402 | 3.835 | 3.363 | 2.975
x1 = 0.7946 | 1046.51 | 1042.04 | 1037.55 | 1033.05 | 1028.55 | 6.141 | 5.212 | 4.517 | 3.947 | 3.482
x1 = 0.8952 | 1063.47 | 1059.02 | 1054.56 | 1050.08 | 1045.6 | 7.087 | 6.009 | 5.148 | 4.447 | 3.905

CC(=O)[O-].Cn1cc[nH+]c1 [1-methylimidazolium acetate] + CCO
Conditions | mass density, 293.15 K [kg/m3] | mass density, 298.15 K [kg/m3] | mass density, 303.15 K [kg/m3] | mass density, 308.15 K [kg/m3] | mass density, 313.15 K [kg/m3] | viscosity, 293.15 K [mPa·s] | viscosity, 298.15 K [mPa·s] | viscosity, 303.15 K [mPa·s] | viscosity, 308.15 K [mPa·s] | viscosity, 313.15 K [mPa·s]
x1 = 0.0495 | 823.45 | 819.02 | 814.55 | 810.04 | 805.49 | 1.366 | 1.236 | 1.123 | 1.024 | 0.938
x1 = 0.0964 | 851.37 | 846.85 | 842.29 | 837.69 | 833.06 | 1.578 | 1.421 | 1.268 | 1.153 | 1.052
x1 = 0.2004 | 902.14 | 897.55 | 892.91 | 888.25 | 883.55 | 1.995 | 1.789 | 1.612 | 1.458 | 1.325
x1 = 0.2986 | 940.21 | 935.59 | 930.94 | 926.27 | 921.57 | 2.485 | 2.212 | 1.981 | 1.784 | 1.614
x1 = 0.401 | 972.28 | 967.67 | 963.03 | 958.37 | 953.69 | 3.048 | 2.695 | 2.399 | 2.148 | 1.935
x1 = 0.4973 | 997.47 | 992.88 | 988.27 | 983.64 | 978.99 | 3.642 | 3.199 | 2.833 | 2.524 | 2.264
x1 = 0.6499 | 1029.38 | 1024.83 | 1020.26 | 1015.69 | 1011.1 | 4.686 | 4.061 | 3.576 | 3.146 | 2.798
x1 = 0.8003 | 1053.98 | 1049.49 | 1044.97 | 1040.45 | 1035.92 | 5.85 | 5.024 | 4.363 | 3.826 | 3.384
x1 = 0.8941 | 1066.93 | 1062.47 | 1057.99 | 1053.51 | 1049.01 | 6.855 | 5.847 | 5.04 | 4.357 | 3.829

CC(=O)[O-].Cn1cc[nH+]c1 [1-methylimidazolium acetate] + CO
Conditions | mass density, 293.15 K [kg/m3] | mass density, 298.15 K [kg/m3] | mass density, 303.15 K [kg/m3] | mass density, 308.15 K [kg/m3] | mass density, 313.15 K [kg/m3] | viscosity, 293.15 K [mPa·s] | viscosity, 298.15 K [mPa·s] | viscosity, 303.15 K [mPa·s] | viscosity, 308.15 K [mPa·s] | viscosity, 313.15 K [mPa·s]
x1 = 0.05 | 841.99 | 837.15 | 832.29 | 827.39 | 822.47 | 0.818 | 0.758 | 0.704 | 0.657 | 0.615
x1 = 0.1008 | 880.4 | 875.53 | 870.63 | 865.7 | 860.74 | 1.049 | 0.964 | 0.889 | 0.822 | 0.763
x1 = 0.1994 | 936.43 | 931.59 | 926.72 | 921.83 | 916.92 | 1.568 | 1.424 | 1.317 | 1.189 | 1.093
x1 = 0.2997 | 974.67 | 969.87 | 965.05 | 960.22 | 955.37 | 2.134 | 1.936 | 1.747 | 1.585 | 1.445
x1 = 0.4 | 1002.67 | 997.94 | 993.18 | 988.42 | 983.63 | 2.806 | 2.428 | 2.193 | 1.991 | 1.822
x1 = 0.4979 | 1023.14 | 1018.47 | 1013.77 | 1009.07 | 1004.35 | 3.486 | 2.986 | 2.672 | 2.399 | 2.195
x1 = 0.651 | 1046.77 | 1042.19 | 1037.58 | 1032.97 | 1028.34 | 4.706 | 4.006 | 3.541 | 3.133 | 2.81
x1 = 0.8011 | 1063.57 | 1059.06 | 1054.54 | 1050 | 1045.45 | 6.119 | 5.207 | 4.509 | 3.927 | 3.454
x1 = 0.9012 | 1072.29 | 1067.83 | – | 1058.86 | 1054.36 | 7.161 | 6.065 | 5.2 | 4.485 | 3.912

CC(=O)[O-].Cn1cc[nH+]c1 [1-methylimidazolium acetate] + O
Conditions | mass density, 293.15 K [kg/m3] | mass density, 298.15 K [kg/m3] | mass density, 303.15 K [kg/m3] | mass density, 308.15 K [kg/m3] | mass density, 313.15 K [kg/m3] | viscosity, 293.15 K [mPa·s] | viscosity, 298.15 K [mPa·s] | viscosity, 303.15 K [mPa·s] | viscosity, 308.15 K [mPa·s] | viscosity, 313.15 K [mPa·s]
x1 = 0.0496 | 1050.26 | 1047.88 | 1045.35 | 1042.68 | 1039.87 | 2.361 | 2.05 | 1.797 | 1.59 | 1.419
x1 = 0.0999 | 1080.12 | 1076.77 | 1073.32 | 1069.76 | 1066.09 | 4.352 | 3.682 | 3.154 | 2.73 | 2.363
x1 = 0.2007 | 1099.43 | 1095.11 | 1090.72 | 1086.27 | 1081.75 | 8.567 | 7.087 | 5.755 | 4.731 | 4.082
x1 = 0.2985 | 1099.75 | 1095.2 | 1090.61 | 1085.97 | 1081.29 | 11.17 | 9.095 | 7.498 | 6.239 | 5.265
x1 = 0.3986 | 1096.26 | 1091.68 | 1087.07 | 1082.42 | 1077.74 | 11.62 | 9.434 | 7.776 | 6.521 | 5.535
x1 = 0.496 | 1092.17 | 1087.6 | 1083 | 1078.38 | 1073.73 | 11.27 | 9.212 | 7.655 | 6.419 | 5.459
x1 = 0.6467 | 1087.46 | 1082.93 | 1078.39 | 1073.83 | 1069.26 | 10.44 | 8.538 | 7.137 | 6.085 | 5.234
x1 = 0.7954 | 1083.49 | 1079.01 | 1074.5 | 1069.99 | 1065.48 | 9.391 | 7.858 | 6.641 | 5.663 | 4.895
x1 = 0.8987 | 1081.48 | 1077.03 | 1072.55 | 1068.08 | 1063.6 | 8.655 | 7.299 | 6.193 | 5.304 | 4.584
